Data on 30 compounds can be found in patent publication US20160346291A1, “COMPOSITIONS AND THERAPEUTIC METHODS FOR ACCELERATED PLAQUE REGRESSION” (Resverlogix Corp, priority 2013, published 2016).

In the experiment the test system is ApoA-I mRNA. The experiment in a line: ApoA-I mRNA quantitation in HepG2 cells (real-time PCR). In kind it is cell-based. The arrangement: key: Active: An active compound is one that causes a >15% increase in ApoA-I mRNA at a concentration less than or equal to 100 uM. The settings on record: concentration less than or equal to 100 uM, fold induction relative to DMSO control. Here is the method:
At time of harvesting, the spent media was removed from the HepG2 cells and immediately placed on ice (for immediate use) or at −80° C. (for future use) in ApoA-I and albumin ELISAs. The cells remaining in the plate wells were rinsed in 200 μL PBS. PBS was carefully removed to avoid removing any loosely attached cells.
Once the PBS was removed, 85 μL cell lysis solution was added to the cells in each well and incubated for 5-10 min at room temperature, to allow for complete cell lysis and detachment. mRNA was then prepared using the “mRNA Catcher PLUS plate” from Invitrogen, according to the protocol supplied. After the last wash, as much wash buffer as possible was aspirated without allowing the wells to dry. Elution Buffer (E3, 80 μL) was then added to each well. mRNA was then eluted by incubating the mRNA Catcher PLUS plate with Elution Buffer for 5 min at 68° C. and then immediately placing the plate on ice.
The eluted mRNA was isolated and then used in a one-step real-time […]-PCR reaction, using components of the Ultra Sense Kit together with Applied Biosystems primer-probe mixes. Real-time PCR data was analyzed, using the Ct values, to determine the fold induction of each unknown sample, relative to the control (that is, relative to the control for each independent DMSO concentration).
The following compounds of Formula I were evaluated in this assay. An active compound is one that causes a >15% increase in ApoA-I mRNA at a concentration less than or equal to 100 uM.
A general note: In qPCR the cycle at which signal appears reflects the starting amount.
For `Cc1cc(-c2cc3ncccc3c(=O)[nH]2)cc(C)c1O` [7-(4-hydroxy-3,5-dimethylphenyl)-1,6-naphthyridin-5(6H)-one], the “Effect on ApoA-I mRNA levels” value was “Active”.
For `COc1cc(OC)c2c(=O)[nH]c(-c3cc(C)c(OCCN(C)C)c(C)c3)cc2c1` [3-(4-(2-(dimethylamino)ethoxy)-3,5-dimethylphenyl)-6,8-dimethoxyisoquinolin-1(2H)-one] the value was “Active”.
The same measure for `COc1cc(OC)c2c(=O)n(C)c(-c3cc(C)c(O)c(C)c3)cc2c1` [3-(4-hydroxy-3,5-dimethylphenyl)-6,8-dimethoxy-2-methylisoquinolin-1(2H)-one]: “Active”; for `CNC(=O)NCCOc1c(C)cc(-c2nc3cc(OC)cc(OC)c3c(=O)[nH]2)cc1C` [1-(2-(4-(5,7-dimethoxy-4-oxo-3,4-dihydroquinazolin-2-yl)-2,6-dimethylphenoxy)ethyl)-3-methylurea]: “Active”.
Regarding `COc1cc(OC)c2c(=O)[nH]c(-c3ccc(OCCO)c(Cl)c3)nc2c1` [2-(3-chloro-4-(2-hydroxyethoxy)phenyl)-5,7-dimethoxyquinazolin-4(3H)-one], the “Effect on ApoA-I mRNA levels” value is reported as “Active”.
The same measure for `COc1ccc(-c2nc3cc(OC)cc(OC)c3c(=O)[nH]2)cc1` [5,7-dimethoxy-2-(4-methoxyphenyl)quinazolin-4(3H)-one]: “Active”; for `COc1cc(OC)c2c(=O)[nH]c(-c3cc(C)c(OCCN)c(C)c3)nc2c1` [2-(4-(2-aminoethoxy)-3,5-dimethylphenyl)-5,7-dimethoxyquinazolin-4(3H)-one]: “Active”; for `COc1cccc2nc(-c3cc(C)c(OCCO)c(C)c3)[nH]c(=O)c12` [2-(4-(2-hydroxyethoxy)-3,5-dimethylphenyl)-5-methoxyquinazolin-4(3H)-one]: “Active”.
For `COc1cc(OC)c2c(=O)[nH]c(-c3cc(C)c(OCCNC(C)=O)c(C)c3)nc2c1` [N-(2-(4-(5,7-dimethoxy-4-oxo-3,4-dihydroquinazolin-2-yl)-2,6-dimethylphenoxy)ethyl)acetamide] the value was “Active”.
As for `CCCNC(=O)OCCOc1c(C)cc(-c2nc3cc(OC)cc(OC)c3c(=O)[nH]2)cc1C` [2-(4-(5,7-Dimethoxy-4-oxo-3,4-dihydroquinazolin-2-yl)-2,6-dimethyl-phenoxy)ethyl propylcarbamate], the “Effect on ApoA-I mRNA levels” value is reported as “Active”.
For `COc1cc(OC)c2c(=O)[nH]c(-c3cc(C)cc(C)c3)nc2c1` [2-(3,5-dimethylphenyl)-5,7-dimethoxyquinazolin-4(3H)-one] the value was “Active”.
The same measure for `Cc1cc(C)c2c(=O)[nH]c(-c3cc(C)c(OCCO)c(C)c3)nc2c1` [2-(4-(2-hydroxyethoxy)-3,5-dimethylphenyl)-5,7-dimethylquinazolin-4(3H)-one]: “Active”.
In the case of `COc1cc(OC)cc(-c2nc3cc(OC)cc(OC)c3c(=O)[nH]2)c1` [2-(3,5-dimethoxyphenyl)-5,7-dimethoxyquinazolin-4(3H)-one], the “Effect on ApoA-I mRNA levels” value is on record as “Active”.
For `O=c1[nH]c(-c2ccc(N(CCO)CCO)cc2)nc2ccccc12` [2-(4-(bis(2-hydroxyethyl)amino)phenyl)quinazolin-4(3H)-one] the value was “Active”.
The same measure for `COc1cc(OC)c2c(=O)[nH]c(-c3ccc4c(c3)OCCO4)nc2c1` [2-(2,3-dihydrobenzo[b][1,4]dioxin-6-yl)-5,7-dimethoxyquinazolin-4(3H)-one]: “Active”; for `COc1cc(OC)c2c(=O)[nH]c(-c3cc(C)c(N)c(C)c3)nc2c1` [2-(4-amino-3,5-dimethylphenyl)-5,7-dimethoxyquinazolin-4(3H)-one]: “Active”.
The same measure for `COc1cc(OC)c2c(=O)[nH]c(-c3ccc(O)c(C)c3)nc2c1` [2-(4-hydroxy-3-methylphenyl)-5,7-dimethoxyquinazolin-4(3H)-one]: “Active”.
For the compound `Oc1ccc(-c2cc3ccccc3cn2)cc1` [4-Isoquinolin-3-yl-phenol], the “Effect on ApoA-I mRNA levels” value is listed as “Active”.
Take `COc1cc(OC)c2c(=O)[nH]c(-c3cc(C)c(O)c(C)c3)cc2n1` [7-(4-hydroxy-3,5-dimethylphenyl)-2,4-dimethoxy-1,6-naphthyridin-5(6H)-one]: the “Effect on ApoA-I mRNA levels” value is “Active”.
`COc1cc2nc(-c3cc(C)c(OCCO)c(C)c3)[nH]c(=O)c2cc1OC` [2-(4-(2-hydroxyethoxy)-3,5-dimethylphenyl)-6,7-dimethoxyquinazolin-4(3H)-one]: the “Effect on ApoA-I mRNA levels” value is on record as “Active”.
`COc1cc(OC)c2c(=O)[nH]c(-c3cc(C)c(OCCNS(C)(=O)=O)c(C)c3)nc2c1` [N-(2-(4-(5,7-dimethoxy-4-oxo-3,4-dihydroquinazolin-2-yl)-2,6-dimethylphenoxy)ethyl)methanesulfonamide]: the “Effect on ApoA-I mRNA levels” value is “Active”.
The same measure for `COc1ccc(C(=O)NCCOc2c(C)cc(-c3nc4cc(OC)cc(OC)c4c(=O)[nH]3)cc2C)cc1` [N-(2-(4-(5,7-dimethoxy-4-oxo-3,4-dihydroquinazolin-2-yl)-2,6-dimethylphenoxy)ethyl)-4-methoxybenzamide]: “Active”; for `Cc1cc(-c2cc3ccc(CN4CCOCC4)cc3c(=O)[nH]2)cc(C)c1O` [3-(4-hydroxy-3,5-dimethylphenyl)-7-(morpholinomethyl)isoquinolin-1(2H)-one]: “Active”.
For the compound `COc1cc(OC)c2c(=O)[nH]c(-c3cc(C)c(OC)c(C)c3)cc2n1` [2,4-dimethoxy-7-(4-methoxy-3,5-dimethylphenyl)-1,6-naphthyridin-5(6H)-one], the “Effect on ApoA-I mRNA levels” value is reported as “Active”.
For `COc1cc(OC)c2c(=O)[nH]c(-c3ccc(CN4CCN(C)CC4)cc3)nc2c1` [5,7-dimethoxy-2-(4-((4-methylpiperazin-1-yl)methyl)phenyl)quinazolin-4(3H)-one] the value was “Active”; for `COc1cc(OC)c2c(=O)[nH]c(-c3cc(C)c(OCCNS(=O)(=O)c4ccccc4)c(C)c3)nc2c1` [N-(2-(4-(5,7-dimethoxy-4-oxo-3,4-dihydroquinazolin-2-yl)-2,6-dimethylphenoxy)ethyl)benzenesulfonamide], “Active”.
For `Cc1cc(-c2cc3nc(OC(C)C)cc(OC(C)C)c3c(=O)[nH]2)cc(C)c1O` [7-(4-hydroxy-3,5-dimethylphenyl)-2,4-diisopropoxy-1,6-naphthyridin-5(6H)-one] the value was “Active”; for `COc1cc(OC)c2cnc(-c3cc(C)c(OCCN4CCOCC4)c(C)c3)cc2c1` [4-(2-(4-(6,8-dimethoxyisoquinolin-3-yl)-2,6-dimethylphenoxy)ethyl)morpholine], “Active”.
`COc1cc(OC)c2c(=O)[nH]c(-c3ccc(C)cc3)nc2c1` [5,7-dimethoxy-2-p-tolylquinazolin-4(3H)-one]: the “Effect on ApoA-I mRNA levels” value is given as “Inactive”.
The same measure for `COc1cc(OC)c2c(=O)[nH]c(-c3ccc(OCCO)c(OC)c3)nc2c1` [2-(4-(2-hydroxyethoxy)-3-methoxyphenyl)-5,7-dimethoxyquinazolin-4(3H)-one]: “Active”.
